Assay results: patent US20260110682A1, “COMPOSITIONS AND METHODS TARGETING SWIP-10 AND MBLAC1 FOR THE THERAPEUTIC MODULATION OF COPPER DYSHOMEOSTASIS” (Florida Atlantic University Board of Trustees, priority 2022, published 2026)

Legend:
DA neurons = assay: DA neuron degeneration in worms with GFP-labeled DA neurons (BY250), scored by fluorescence/confocal imaging; type: in vivo, C. elegans; details: for rescue of DA neuron degeneration of swip-10: BY250
Experimental: FIG. 6A: WT transgenic worms with GFP-labeled DA neurons (BY250) were raised on agar plates containing vehicle or 10 μM of the Cu+ specific chelator BCS and imaged by fluorescence microscopy at the late L4 stage to quantify DA neuron degeneration. Data derived from 4 experiments for each condition with statistical evaluation by a one-tailed Student's t-test. […] CuCl2 is known to generate Cu+ upon uptake into cells, thus elevating intracellular Cu+ levels. […] Sustained alterations in mitochondrial function and increased oxidative stress are expected to place neurons at risk for death due to their high metabolic rate. […] Assays were performed blind to genotype and treatment, and degeneration assessed by scoring the frequency of dendritic breaks, shrunken soma and missing neurons as described by Gibson et al, 2018. Extending work examining degeneration in BY250: swip-10 vs BY250, a potential Cu-sensitive regulation of swip-10 degeneration was assessed using growth of BY250 animals on the Cu+ specific chelator, BCS, to promote degeneration, and incubation of BY250: swip-10 on CuCl2 and elesclomol to prevent swip-10 degeneration.

chca-1 = assay: qPCR of chca-1 RNA levels in worms; type: in vivo, C. elegans; details: N2 worms treated with BCS; similar extent as in swip-10 animals
[1] = test system: mitochondrial respiration; details: swip-10 KO worms treated with FCCP
Description: Data here are presented as mean oxygen consumption (pmol/second) of 100 worms. ** represents statistical significance (P<0.01) compared to the N2 strain by a two-tailed (unpaired) t-test.

[2] = test system: animal models of AD and other neurodegenerative disorders; details: stroke, oxygen glucose deprivation induced neurodegeneration, motor neuron degeneration; cited from earlier work
MBLAC1 = molecular target: T1, MBLAC1 (Homo sapiens, UniProt A4D2B0); details: cited from earlier work
T1 sequence (A4D2B0 1-266): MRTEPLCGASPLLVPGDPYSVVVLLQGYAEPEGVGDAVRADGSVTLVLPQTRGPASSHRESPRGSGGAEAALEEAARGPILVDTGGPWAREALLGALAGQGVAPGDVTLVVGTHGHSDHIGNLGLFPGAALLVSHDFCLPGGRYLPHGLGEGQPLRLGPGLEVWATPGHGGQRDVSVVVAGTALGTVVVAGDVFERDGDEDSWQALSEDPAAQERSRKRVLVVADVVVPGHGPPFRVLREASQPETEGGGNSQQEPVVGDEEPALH

[3] = test system: GLT1 type glutamate transporter; details: rodents treated with ceftriaxone; cited from earlier work
Menkes disease = details: boosting Cu levels; cited from earlier work

## Cc1cc(-c2ccc(S(=O)(=O)O)cc2)c2ccc3c(-c4ccc(S(=O)(=O)O)cc4)cc(C)nc3c2n1 [BCS, bathocuproinedisulfonic acid]
DA neurons; WT (BY250) worms raised on agar plates containing 10 μM BCS, imaged at late L4 stage
  DA neuron degeneration: DA neuron degeneration generated
chca-1
  chca-1 RNA levels: elevated

## [Cl][Cu][Cl] [CuCl2]
DA neurons; swip-10 animals incubated with CuCl2 (10 μM)
  rescue of DA neuron degeneration of swip-10: rescued

## N#CC(C#N)=NNc1ccc(OC(F)(F)F)cc1 [FCCP]
[1]
  oxygen consumption: restores oxygen consumption

## CO/N=C(\C(=O)N[C@@H]1C(=O)N2C(C(=O)O)=C(CSc3nc(=O)c(=O)[nH]n3C)CS[C@H]12)c1csc(N)n1 [ceftriaxone]
[2]
  neuroprotection: demonstrates neuroprotection
MBLAC1
  binding to MBLAC1: binds MBLAC1
[3]
  GLT1 type glutamate transporter level: triggers an elevation

## CN(NC(=O)CC(=O)NN(C)C(=S)c1ccccc1)C(=S)c1ccccc1 [elesclomol]
Menkes disease
  pathology associated with Menkes disease: reduce pathology
DA neurons; swip-10 animals incubated with elesclomol (5 μM)
  rescue of DA neuron degeneration of swip-10: rescued
